Source: patent publication US8598163B2, “Derivatives of [1,3]Oxazin-2-one useful for the treatment of metabolic diseases such as lipid disorders” (Vitae Pharmaceuticals, Inc., priority 2009, dated 2013)

Legend:
[1] = target: T1, 11β-HSD1 (Homo sapiens (Human), UniProt P28845); details: comparator compounds; IC50 in Biological Test Example 4 divided by IC50 in Biological Test Example 1
Description: The assay began by dispensing 49 μl of microsome solution into 96-well polypropylene plates and adding 1 μl of the test compounds in DMSO, previously diluted in half-log increments (8 points) starting at 1.0 mM. […] The plates were incubated for 120 minutes at rt, and the reaction was quenched with the addition of 100 μl acetonitrile with 20 mM cortisone and 20 mM cortisol. After a ten minute incubation at rt, 100 μl of each well was filtered through a MultiScreen HTS, HV filter plate (Millipore) and diluted with 100 μl of reaction buffer without human plasma.

[2] = target: T1, 11β-HSD1; details: Biological Test 3, human liver microsomes, HTRF
Description: Briefly, compounds were incubated for 1 hour at 37° C. in Tris buffer (20 mM tris, 5 mM EDTA, pH 6.0) containing NADPH (200 μM) and cortisone (80 nM). Cortisol generated in the reaction is then detected with a competitive immunoassay, involving two HTRF conjugates: cortisol linked to XL665 and anti-cortisol antibody labeled with Europium cryptate. The incubation period for detection reaction was typically 2 hours. […] The ratio of the two emission signals was then calculated (Em665*10000/Em615). […] Each assay also contained a calibration curve with cortisol to transform the fluorescent data into cortisol concentrations. Percent inhibition of each compound was determined relative to the carbenoxolone signal.

T1 sequence (P28845 whole entry): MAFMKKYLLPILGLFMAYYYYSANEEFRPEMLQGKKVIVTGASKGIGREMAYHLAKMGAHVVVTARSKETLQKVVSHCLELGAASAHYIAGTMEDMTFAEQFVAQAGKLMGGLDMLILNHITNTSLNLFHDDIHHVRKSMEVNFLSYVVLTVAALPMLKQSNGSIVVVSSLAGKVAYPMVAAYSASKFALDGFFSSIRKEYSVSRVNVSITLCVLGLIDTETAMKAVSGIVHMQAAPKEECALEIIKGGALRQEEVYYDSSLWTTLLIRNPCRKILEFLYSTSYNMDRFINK

Structure (SMILES) | Shift [1] | IC50 [2] [nM]
Cc1nc2cc(-c3ccc([C@H](C)N4CC[C@](CC(C)(C)O)(c5ccccc5)OC4=O)cc3)ccn2n1 [Example 7, (S)-6-(2-Hydroxy-2-methyl-propyl)-3-{(5)-1-[4-(2-methyl-[1,2,4]triazolopyridin-7-yl)-phenyl]-ethyl}-6-phenyl-[1,3]oxazinan-2-one] | 42.43 | 31
COc1nc2ccc(-c3ccc([C@H](C)N4CC[C@](CC(C)(C)O)(c5ccccc5)OC4=O)cc3)cn2n1 [Example 9, (S)-6-(2-Hydroxy-2-methyl-propyl)-3-{(S)-1-[4-(2-methoxy-[1,2,4]triazolo[1,5-a]pyridin-6-yl)-phenyl]-ethyl}-6-phenyl-[1,3]oxazinan-2-one] | 21.45 | 54
